From PubChem BioAssay (NCI)
Several values for one entry are separate records, joined by “and”; a condition that tells them apart may be missing. Identical values can stand only once.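 Where inhibition never reached the appropriate level, the endpoint shown equals the highest concentration tested. Otherwise, values were interpolated linearly from a five-concentration, 48-hour dose response in 96-well plates. GI50 marks 50% less growth. Definition used: TGI = concentration required for complete inhibition of growth.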

Legend:
Assay in all cases: growth of human tumour cells (NCI), 48 h
HCC-2998 colon = test system: HCC-2998 colon
SK-MEL-5 melanoma = test system: SK-MEL-5 melanoma
SF-268 CNS = test system: SF-268 CNS
ACHN renal = test system: ACHN renal
RXF 393 renal = test system: RXF 393 renal
BT-549 breast = test system: BT-549 breast
KM12 colon = test system: KM12 colon
786-0 renal = test system: 786-0 renal
K-562 leukemia = test system: K-562 leukemia
HCT-116 colon = test system: HCT-116 colon
HS 578T breast = test system: HS 578T breast
CCRF-CEM leukemia = test system: CCRF-CEM leukemia
NCI-H460 lung = test system: NCI-H460 lung
CAKI-1 renal = test system: CAKI-1 renal
SN12C renal = test system: SN12C renal
SNB-19 CNS = test system: SNB-19 CNS
NCI/ADR-RES ovarian = test system: NCI/ADR-RES ovarian
HOP-62 NSCLC = test system: HOP-62 NSCLC
MALME-3M melanoma = test system: MALME-3M melanoma
MOLT-4 leukemia = test system: MOLT-4 leukemia
COLO 205 colon = test system: COLO 205 colon
SK-MEL-2 melanoma = test system: SK-MEL-2 melanoma
SK-MEL-28 melanoma = test system: SK-MEL-28 melanoma
TK-10 renal = test system: TK-10 renal
T-47D breast = test system: T-47D breast
M14 melanoma = test system: M14 melanoma
RPMI-8226 leukemia = test system: RPMI-8226 leukemia
SF-295 CNS = test system: SF-295 CNS
LOX IMVI melanoma = test system: LOX IMVI melanoma
SR leukemia = test system: SR leukemia
NCI-H23 lung = test system: NCI-H23 lung
OVCAR-5 ovarian = test system: OVCAR-5 ovarian
UO-31 renal = test system: UO-31 renal
EKVX NSCLC = test system: EKVX NSCLC
SK-OV-3 ovarian = test system: SK-OV-3 ovarian
MDA-MB-231 breast = test system: MDA-MB-231 breast
SW-620 colon = test system: SW-620 colon
PC-3 prostate = test system: PC-3 prostate
IGROV1 ovarian = test system: IGROV1 ovarian
HCT-15 colon = test system: HCT-15 colon
UACC-257 melanoma = test system: UACC-257 melanoma
NCI-H226 lung = test system: NCI-H226 lung
MDA-MB-435 = test system: MDA-MB-435
HOP-92 NSCLC = test system: HOP-92 NSCLC
HT29 colon = test system: HT29 colon
MCF7 breast = test system: MCF7 breast
OVCAR-8 ovarian = test system: OVCAR-8 ovarian
OVCAR-4 ovarian = test system: OVCAR-4 ovarian
DU-145 prostate = test system: DU-145 prostate
A549 NSCLC = test system: A549 NSCLC
OVCAR-3 ovarian = test system: OVCAR-3 ovarian
SF-539 CNS = test system: SF-539 CNS
HL-60(TB) leukemia = test system: HL-60(TB) leukemia
NCI-H522 lung = test system: NCI-H522 lung
SNB-75 CNS = test system: SNB-75 CNS
UACC-62 melanoma = test system: UACC-62 melanoma
A498 renal = test system: A498 renal
U251 CNS = test system: U251 CNS

## CN(c1ncccc1CNc1nc(Nc2ccc3c(c2)CC(=O)N3)ncc1C(F)(F)F)S(C)(=O)=O
HCC-2998 colon
  GI50: 1.41 µM and 1.8 µM
  TGI: 7.28 µM and 9.71 µM
SK-MEL-5 melanoma
  GI50: 2.57 µM and 2.28 µM
  TGI: 7.44 µM and 5.85 µM
SF-268 CNS
  GI50: 2.33 µM and 2.65 µM
  TGI: 13 µM and > 10 µM
ACHN renal
  GI50: 2.72 µM and 3.31 µM
  TGI: > 100 µM
RXF 393 renal
  GI50: 1.61 µM and 1.48 µM
  TGI: 3.98 µM and 4.08 µM
BT-549 breast
  GI50: 2.21 µM and 2.53 µM
  TGI: 7 µM and 9.25 µM
KM12 colon
  GI50: 0.367 µM and 0.425 µM
  TGI: 4.52 µM and 7.35 µM
786-0 renal
  GI50: 3.02 µM and 2.51 µM
  TGI: > 83.8 µM
K-562 leukemia
  GI50: 2.97 µM and 3.45 µM
  TGI: > 100 µM
HCT-116 colon
  GI50: 1.52 µM and 2.5 µM
  TGI: 12.6 µM and > 10 µM
HS 578T breast
  GI50: 1.73 µM and 2.47 µM
  TGI: 7.9 µM and > 10 µM
CCRF-CEM leukemia
  GI50: 3 µM and 2.46 µM
NCI-H460 lung
  GI50: 2.14 µM and 2.95 µM
  TGI: 7.32 µM and > 10 µM
CAKI-1 renal
  GI50: 2.15 µM and 2.87 µM
  TGI: > 52.4 µM
SN12C renal
  GI50: 2.88 µM and 2.95 µM
  TGI: > 100 µM
SNB-19 CNS
  GI50: 2.75 µM and 2.89 µM
  TGI: > 100 µM
NCI/ADR-RES ovarian
  GI50: 13 µM
  TGI: > 85.8 µM
HOP-62 NSCLC
  GI50: 2.58 µM and 2.59 µM
  TGI: > 30.1 µM
MALME-3M melanoma
  GI50: 2.98 µM and 2.89 µM
  TGI: 10.2 µM and > 10 µM
MOLT-4 leukemia
  GI50: 2.9 µM and 2.67 µM
  TGI: 7.47 µM and 7.55 µM
COLO 205 colon
  GI50: 0.601 µM and 1.11 µM
  TGI: 2.08 µM and 3.03 µM
SK-MEL-2 melanoma
  GI50: 1.57 µM and 1.85 µM
  TGI: 3.69 µM and 4.8 µM
SK-MEL-28 melanoma
  GI50: 2.07 µM and 2.92 µM
  TGI: 6.58 µM and > 10 µM
TK-10 renal
  GI50: 1.87 µM and 1.75 µM
  TGI: 7.82 µM and > 10 µM
T-47D breast
  GI50: 3.22 µM and 2.72 µM
  TGI: > 33 µM and 9.35 µM
M14 melanoma
  GI50: 1.87 µM and 2.91 µM
  TGI: 5.49 µM and > 10 µM
RPMI-8226 leukemia
  GI50: 2.75 µM and 2.39 µM
  TGI: 10.2 µM and 6.94 µM
SF-295 CNS
  GI50: 2.2 µM and 2.55 µM
  TGI: > 100 µM
LOX IMVI melanoma
  GI50: 1.31 µM and 1.68 µM
  TGI: 17.4 µM and 9.4 µM
SR leukemia
  GI50: 0.606 µM and 1.54 µM
  TGI: 4.91 µM and 5.26 µM
NCI-H23 lung
  GI50: 1.79 µM and 2.16 µM
  TGI: 4.88 µM and 6.35 µM
OVCAR-5 ovarian
  GI50: 2.22 µM and 2.7 µM
  TGI: 60.3 µM and > 10 µM
UO-31 renal
  GI50: 2.88 µM and 2.82 µM
  TGI: > 28.7 µM
EKVX NSCLC
  GI50: 1.84 µM and 2.64 µM
  TGI: 8.23 µM and > 10 µM
SK-OV-3 ovarian
  GI50: 5.04 µM and 4.61 µM
  TGI: > 100 µM
MDA-MB-231 breast
  GI50: 2.01 µM and 2.33 µM
  TGI: > 100 µM
SW-620 colon
  GI50: 1.56 µM and 2.89 µM
  TGI: > 32.7 µM
PC-3 prostate
  GI50: 2.83 µM and 3 µM
  TGI: > 35.9 µM
IGROV1 ovarian
  GI50: 2.42 µM and 1.8 µM
  TGI: > 100 µM
HCT-15 colon
  GI50: 5.14 µM and 4.9 µM
  TGI: > 80.5 µM
UACC-257 melanoma
  GI50: 1.6 µM and 2.24 µM
  TGI: 5.54 µM and 8.76 µM
NCI-H226 lung
  GI50: 2.38 µM and 2.25 µM
  TGI: 7.97 µM and > 10 µM
MDA-MB-435
  GI50: 1.46 µM and 2.74 µM
  TGI: 11.4 µM and > 10 µM
HOP-92 NSCLC
  GI50: 0.0987 µM and 0.192 µM
  TGI: 1.85 µM and 5.99 µM
HT29 colon
  GI50: 1.75 µM and 2.33 µM
  TGI: 4.79 µM and 8.54 µM
MCF7 breast
  GI50: 0.948 µM and 1.1 µM
  TGI: > 27 µM
OVCAR-8 ovarian
  GI50: 2.41 µM and 3.38 µM
  TGI: > 64.6 µM
OVCAR-4 ovarian
  GI50: 2.1 µM and 3.56 µM
  TGI: 11 µM and > 10 µM
DU-145 prostate
  GI50: 2.88 µM and 2.74 µM
  TGI: > 100 µM
A549 NSCLC
  GI50: 2.56 µM and 2.92 µM
  TGI: 12.2 µM and > 10 µM
OVCAR-3 ovarian
  GI50: 2.42 µM and 2.81 µM
  TGI: > 26.9 µM
SF-539 CNS
  GI50: 1.96 µM and 2.35 µM
  TGI: 5.18 µM and 6.93 µM
HL-60(TB) leukemia
  GI50: 2.02 µM and 1.38 µM
  TGI: 5.72 µM and 5.51 µM
NCI-H522 lung
  GI50: 1.81 µM and 2.24 µM
  TGI: 5.41 µM and 7.71 µM
SNB-75 CNS
  GI50: 1.33 µM and 1.51 µM
  TGI: 4.78 µM and 4.8 µM
UACC-62 melanoma
  GI50: 1.4 µM
  TGI: 3.62 µM
A498 renal
  GI50: 2.81 µM
  TGI: 7.14 µM
U251 CNS
  GI50: 2.17 µM and 2.76 µM
  TGI: > 47.3 µM
